Test results published in US20060094771A1, “Carvedilol pharmasolve solvate” (priority 2002, published 2006).

Experiment: Solubility of carvedilol in Pharmasolve
Assay type: physicochemical
Conditions: solvent Pharmasolve (N-methyl-2-pyrrolidone)

## COc1ccccc1OCCNCC(O)COc1cccc2[nH]c3ccccc3c12 (racemic) [carvedilol]
  solubility of carvedilol in Pharmasolve: 1.6 gram of drug per gram of pharmasolve
